Reference: the supplement of paper PMC10307832

Tests used:
Experiment in all cases: relative viability (nuclei count vs DMSO), 5 days (fraction); higher = more cells survive
Doxorubicin + Tozasertib = compound: COc1cccc2c1C(=O)c1c(O)c3c(c(O)c1C2=O)C[C@@](O)(C(=O)CO)C[C@@H]3O[C@H]1C[C@H](N)[C@H](O)[C@H](C)O1 [Doxorubicin] + Cc1cc(Nc2cc(N3CCN(C)CC3)nc(Sc3ccc(NC(=O)C4CC4)cc3)n2)n[nH]1 [Tozasertib] (partner 0.1 µM)
Procedure, shortened: (§1)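 Lung cancer cell lines, seeded in 1536-well plates, were treated the following day by pin tool with a single drug or with five library-drug doses (not always all listed) in √10 steps on top of a fixed anchor-drug dose. Cells were fixed and nuclei stained in one step after 5 days, and nuclei were counted. Relative viability is the nuclei count for treated wells divided by that for vehicle wells, reported as medians of duplicate plates.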

Doxorubicin + Phenformin = compound: COc1cccc2c1C(=O)c1c(O)c3c(c(O)c1C2=O)C[C@@](O)(C(=O)CO)C[C@@H]3O[C@H]1C[C@H](N)[C@H](O)[C@H](C)O1 [Doxorubicin] + N=C(N)NC(=N)NCCc1ccccc1 [Phenformin] (partner 250 µM)
Procedure, shortened: as §1

Doxorubicin + Alpelisib = compound: COc1cccc2c1C(=O)c1c(O)c3c(c(O)c1C2=O)C[C@@](O)(C(=O)CO)C[C@@H]3O[C@H]1C[C@H](N)[C@H](O)[C@H](C)O1 [Doxorubicin] + Cc1nc(NC(=O)N2CCC[C@H]2C(N)=O)sc1-c1ccnc(C(C)(C)C(F)(F)F)c1 [Alpelisib] (partner 2 µM)
Procedure, shortened: as §1

[1] = compound: COc1cccc2c1C(=O)c1c(O)c3c(c(O)c1C2=O)C[C@@](O)(C(=O)CO)C[C@@H]3O[C@H]1C[C@H](N)[C@H](O)[C@H](C)O1 [Doxorubicin] + CC(=O)c1c(C)c2cnc(Nc3ccc(N4CCNCC4)cn3)nc2n(C2CCCC2)c1=O [Palbociclib] (partner 0.5 µM)
Procedure, shortened: as §1

| Cell Line | relative viability (Doxorubicin + Tozasertib; first compound 0.001 µM) | relative viability (Doxorubicin + Tozasertib; first compound 0.003162 µM) | relative viability (Doxorubicin + Tozasertib; first compound 0.01 µM) | relative viability (Doxorubicin + Tozasertib; first compound 0.03162 µM) | relative viability (Doxorubicin + Tozasertib; first compound 0.1 µM) | relative viability (Doxorubicin + Phenformin; first compound 0.001 µM) | relative viability (Doxorubicin + Phenformin; first compound 0.003162 µM) | relative viability (Doxorubicin + Phenformin; first compound 0.01 µM) | relative viability (Doxorubicin + Phenformin; first compound 0.03162 µM) | relative viability (Doxorubicin + Phenformin; first compound 0.1 µM) | relative viability (Doxorubicin + Alpelisib; first compound 0.001 µM) | relative viability (Doxorubicin + Alpelisib; first compound 0.003162 µM) | relative viability (Doxorubicin + Alpelisib; first compound 0.01 µM) | relative viability (Doxorubicin + Alpelisib; first compound 0.03162 µM) | relative viability (Doxorubicin + Alpelisib; first compound 0.1 µM) | relative viability ([1]; first compound 0.001 µM) | relative viability ([1]; first compound 0.003162 µM) | relative viability ([1]; first compound 0.01 µM) | relative viability ([1]; first compound 0.03162 µM) | relative viability ([1]; first compound 0.1 µM) |
| --- | --- | --- | --- | --- | --- | --- | --- | --- | --- | --- | --- | --- | --- | --- | --- | --- | --- | --- | --- | --- |
| NCI-H1734 | 0.48 | 0.275 | 0.292 | 0.238 | 0.249 | 0.385 | 0.413 | 0.356 | 0.262 | 0.261 | 0.589 | 0.682 | 0.662 | 0.604 | 0.661 | 0.408 | 0.425 | 0.324 | 0.263 | 0.344 |
| NCI-H1563 | – | – | – | – | – | 0.618 | 0.573 | 0.546 | 0.524 | 0.501 | 0.888 | 0.824 | 0.726 | 0.529 | 0.51 | – | – | – | – | – |
| NCI-H441 | – | 0.612 | 0.511 | 0.249 | 0.245 | – | 0.682 | 0.438 | 0.218 | 0.245 | – | 0.713 | 0.684 | 0.234 | 0.393 | 0.227 | 0.217 | 0.229 | 0.153 | 0.195 |
| H3255 | 0.59 | 0.759 | 0.573 | 0.604 | 0.539 | 0.371 | 0.363 | 0.333 | 0.374 | 0.311 | 0.698 | 0.656 | 0.562 | 0.58 | 0.404 | 0.306 | 0.315 | 0.306 | 0.348 | 0.263 |
| Calu-6 | – | – | – | – | – | – | – | – | – | – | 1.09 | 1.01 | 0.866 | 0.529 | 0.295 | – | – | – | – | – |
| NCI-H1915 | 0.481 | 0.439 | 0.452 | 0.41 | 0.437 | 0.354 | 0.355 | 0.367 | 0.375 | 0.353 | 0.98 | 1.05 | 1.1 | 1.05 | 1.12 | 0.581 | 0.536 | 0.549 | 0.483 | 0.543 |
| NCI-H1793 | – | 0.403 | 0.348 | 0.286 | 0.358 | – | 0.291 | 0.355 | 0.334 | 0.429 | – | 0.557 | 0.675 | 0.389 | 0.588 | – | 0.303 | 0.304 | 0.258 | 0.324 |
| NCI-H1651 | 0.643 | 0.793 | 0.648 | 0.319 | 0.157 | 0.319 | 0.336 | 0.259 | 0.154 | 0.153 | 0.902 | 0.996 | 0.875 | 0.424 | 0.201 | 0.517 | 0.546 | 0.461 | 0.449 | 0.483 |
| NCI-H2126 | 0.902 | 0.752 | 0.774 | 0.229 | 0.251 | 0.556 | 0.531 | 0.475 | 0.299 | 0.273 | 0.743 | 0.775 | 0.755 | 0.711 | 0.796 | 0.349 | 0.347 | 0.371 | 0.345 | 0.386 |
| NCI-H1792 | – | – | – | – | – | – | 0.299 | 0.262 | 0.337 | 0.19 | 0.794 | 0.836 | 0.538 | 0.679 | 0.548 | – | 0.668 | 0.651 | 0.542 | 0.558 |
| EBC-1 | – | – | – | – | – | – | – | – | – | – | 0.835 | 0.921 | 0.823 | 0.61 | 0.405 | – | – | – | – | – |
| NCI-H1623 | 0.489 | 0.426 | 0.417 | 0.39 | 0.445 | 0.533 | 0.561 | 0.575 | 0.528 | 0.502 | – | – | – | – | – | – | – | – | – | – |
| NCI-H1648 | 0.55 | 0.471 | 0.348 | 0.304 | 0.456 | – | – | – | – | – | – | – | – | – | – | 0.283 | 0.294 | 0.286 | 0.245 | 0.258 |
| NCI-H522 | 0.581 | 0.577 | 0.512 | 0.488 | 0.609 | 0.595 | 0.622 | 0.585 | 0.543 | 0.645 | – | – | – | – | – | 0.986 | 1.19 | 1.08 | 0.89 | 1.04 |
| NCI-H1650 | 0.411 | 0.32 | 0.261 | 0.207 | 0.111 | 0.365 | 0.35 | 0.222 | 0.126 | 0.11 | – | – | – | – | – | 0.237 | 0.317 | 0.282 | 0.173 | 0.145 |
| IA-LM | – | – | – | – | – | – | – | – | – | – | 0.675 | 0.742 | 0.669 | 0.544 | 0.427 | – | – | – | – | – |
| NCI-H596 | 0.857 | 1.08 | 0.943 | 0.806 | 0.859 | 0.696 | 0.882 | 0.742 | 0.558 | 0.755 | 0.446 | 0.537 | 0.524 | 0.446 | 0.551 | – | – | – | – | – |
| NCI-H2342 | 0.528 | 0.506 | 0.545 | 0.508 | 0.625 | 0.638 | 0.54 | 0.527 | 0.552 | 0.553 | – | – | – | – | – | 0.547 | 0.557 | 0.548 | 0.496 | 0.496 |
| NCI-H1299 | – | – | – | – | – | – | – | – | – | – | 1.06 | 1.12 | 1.08 | 1.07 | 1.06 | – | – | – | – | – |
| A549 | – | – | – | – | – | – | 0.142 | 0.149 | 0.137 | 0.0431 | 0.799 | 0.676 | 0.48 | 0.132 | 0.0649 | – | – | – | – | – |
| SW 900 | 0.543 | 0.491 | 0.596 | 0.456 | 0.231 | 0.704 | 0.685 | 0.607 | 0.328 | 0.138 | – | – | – | – | – | – | 0.604 | 0.543 | 0.452 | 0.519 |
| ChaGo-K-1 | 0.229 | 0.199 | 0.222 | 0.208 | 0.226 | 0.438 | 0.522 | 0.503 | 0.363 | 0.223 | – | – | – | – | – | 0.962 | 0.912 | 0.911 | 0.939 | 0.974 |
| NCI-H1703 | – | – | – | – | – | – | – | – | – | – | 0.335 | 0.293 | 0.365 | 0.214 | 0.201 | – | – | – | – | – |
